The source of these data is patent US9497963B2, “Methods and compositions for control of gypsy moth, Lymantria dispar” (Simon Fraser University, priority 2008, dated 2016).

The structures appear in SMILES notation. Entries after “also recorded” stand apart in the source; their conditions may differ.

For experiment [1], the system named is male gypsy moth antenna response to pheromone (+)-1. The experiment can be described thus: Decay of the long-term inhibitory effect and dose responses, EAG (Example 6). Further details: species or system Lymantria dispar. Conditions: 100 ng; maximal value, on average. The method, then: LTI dependence on the delay time of the pure (+)-1 puffs (v-vii, Example 6) after the mixed (+)-1/inhibitor puff. The amount of (+)-1 was varied from 10 ng to 1 μg and the amount of inhibitor was constant at 100 μg. FIG. 7B. Dose response of LTI with respect to variable (+)-1 responses and time responses for the strongest long-term inhibition of EAG responses towards (+)-1. FIG. 7C. Dose response of pure pheromone (+)-1. FIG. 7D.
This recovery usually took 5-7 s. The short-term inhibition STI(compound, dose) was calculated for each mixed plume. The long-term inhibition LTI(dose, time) was calculated for each dose and for each of the three puffs following the mixed pheromone-inhibitor plume.

The subject of another experiment is L. dispar PBP 1. The experiment can be described thus: Pheromone-binding protein (PBP) ligand binding assay, PBP1. Further details: species or system Lymantria dispar. Conditions: tested as single compound; means ± S.E., 4 replicates. As for the experimental part:
(§1) A. The protein and ligand are incubated in buffer overnight. B. For half of the incubation mixture, the free ligand (L) is separated from the protein-bound ligand (P.L) by size-exclusion chromatography on P2 Gel (BioRad, exclusion limit 2000 Da). The protein elutes from the small column bed, with its ligand bound (see Examples and […] et al. 2000; Staddon and Everton 1980), while the free ligand is retained on the column ([…] et al. 2000). C. […] The extract from the filtrate (B) contains the protein-bound ligand and the extract from the incubation mixture (A) contains all the ligand (bound and free) present in the aqueous phase. The extracts are analyzed by GC-MS, to obtain values for total ligand in solution (L+P.L) and for protein-bound ligand (P.L). These can then be used to calculate % bound (Table 3). These assays were performed as described in FIG. 3 and as follows: L. dispar PBP 1 or PBP 2 was incubated with the test compound or mini-library. The PBP and the ligand(s) (L) were left to equilibrate (eq 2) overnight. The non-bound ligand was then separated from the protein-bound material (PBP.L) by size-exclusion chromatography. By determining the total ligand in solution at equilibrium (eq. 3) and the protein-bound ligand, it is possible to estimate the percentage of ligand bound to the protein at equilibrium (eq. 4). […] This binding assay has been validated extensively in previous studies ([…] et al. 2000). The components of each mini-library separated cleanly by GC, so it was possible to monitor binding of individual components. PBP+L⇄PBP·L (eq. 2) [L]tot=[L]+[PBP·L] (eq. 3) % bound=100×[PBP·L]/[L]tot (eq. 4) Results: The members of each mini-library separated cleanly by GC, therefore it was possible to monitor binding of individual members to PBP1 or PBP2, the two known PBPs in the gypsy moth, by extraction from the aqueous incubation mixture, followed by GC analysis of the extract (FIG. 3).

The next experiment has as its system L. dispar PBP 2. The experiment can be described thus: Pheromone-binding protein (PBP) ligand binding assay, PBP2. Further details: species or system Lymantria dispar. Particulars: tested as single compound; means ± S.E., 4 replicates. The method, then:
as §1

The subject of experiment [2] is male gypsy moth antennae response to pheromone (+)-1 with plant odors. The experiment can be described thus: Effect on mixed pheromone/plant odorant stimulus, EAG (Example 8, second objective). Further details: species or system Lymantria dispar. The method, then: A second objective for this experiment was to determine whether the oak volatiles, methyl eugenol and 1-hexanol, can enhance the antennal response to (+)-1 and whether the mixed pheromone/plant odorant stimulus can be inhibited by compound 3c{2,3} or DEET. The puff order was: i) air, ii) pure (+)-1 (100 ng), iii) (+)-1 (100 ng) and plant odorant (1 μg for methyl eugenol and 100 μg for 1-hexanol), iv) (+)-1 and plant odorant as in iii+antagonist (100 μg), v) same as in iii. Depolarizations were corrected for the air response as in Eq. 1 and the short-term effects were calculated for puff iii relative to puff ii, and for puff iv relative to puff ii. Long-term effects were calculated for puff v relative to puff iii (for LTI of the mixed pheromone/plant odorant plume) and for puff v relative to puff ii (to determine whether long-term effects of the plant odorant and of the antagonist cancel).

Experiment [3] relates to male gypsy moth antenna response to odorants other than (+)-1. The experiment can be described thus: Long-term inhibition of responses to other pheromone and host plant odorants, EAG (Example 8, first objective). Further details: species or system Lymantria dispar. Particulars: antagonist 100 μg. As for the experimental part:
To determine whether the long-term inhibitory effects of 3c{2,3} and DEET are specific to (+)-1 or also apply to other odorants, compound 3c{2,3} and DEET were tested further with other odorants: (−)-1, racemic 1, dispar alkene, methyl eugenol and 1-hexanol.
These included (−)-1, racemic 1, dispar alkene (the alkene corresponding to the carbon framework of 1), methyl eugenol (a characteristic oak wood odorant) and 1-hexanol (a green leaf volatile, shown previously to be detected by gypsy moth antennae). For the pure odorant puffs, (−)-1 and racemic 1 were administered at 100 ng/cartridge, the alkene, methyl eugenol was administered at 1 μg/cartridge and 1-hexanol was administered at 100 μg/cartridge. The antagonists were both administered at 100 μg/cartridge, mixed with the appropriate dose of the odorant. The puff order was: i) air, ii) pure odorant, iii) odorant+antagonist, iv) pure odorant. All puffs were corrected for the air response as in Eq. 1. STI values were obtained from the depolarization […]. LTI values were obtained by comparing the depolarization of puff iv relative to that of puff ii.

The subject of the next experiment is gypsy moths. The experiment can be described thus: Field test of trap catches, Northern Japan 2009 (Example 12). In kind it is in vivo, Lymantria dispar. Particulars: (+)-dis 40 μg/lure & compound 40 mg/lure, vs (+)-dis alone. As for the experimental part:
Ten traps were used per treatment. The solvent used to deliver the compounds onto the lures was doubly distilled hexane. The hexane was evaporated prior to packing and shipping the lures. The field test was conducted in 10 replicates in Northern Japan. The test was conducted Aug. 16-18, 2009, in an area where gypsy moths are known to live. […] Traps were arranged randomized, placed on platforms. The experiment was conducted blind. The lures contained 40 μg disparlure/lure, a low dose for a field trial (typically 100 μg-1 mg are used). For each treatment, 10 traps were deployed.

For experiment [4], the system named is third instar gypsy moth larvae. The experiment can be described thus: Feeding deterrence, oak leaf disc choice test (Example 13). Particulars: third instar larvae, oak leaf discs, choice between treated and control disc for 17.5 hours; ((C−T)/(C+T))*100. In kind it is in vivo, Lymantria dispar. As for the experimental part:
Gypsy moth larvae were tested at the Canadian Forest Service, for feeding deterrence. A selected set of compounds, based on the results with the electroantennogram testing and also based on feeding deterrence assay results with the cabbage looper, T. ni. The experiment was done with third instar larvae and oak leaf discs. Larvae were left to choose between a treated and a control disc for 17.5 hours. Measurements of leaf areas were used to calculate the amount of leaf consumed from control (C) and treated (T) leaves. Feeding deterrence was calculated using the following formula: ((C−T)/(C+T))*100, and expressed in percent, where C=area of control leaf consumed and T=area of treated leaf consumed.

For experiment [5], the system named is male gypsy moth antenna response to pheromone (+)-1. The experiment can be described thus: EAG short-term (STI) and long-term (LTI) inhibition of pheromone signaling (Example 5). Also noted: species or system Lymantria dispar. Conditions: for Activity (%): short-term inhibition (STI): negative = enhancement. Summed up:
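Excised male gypsy moth antenna in saline pH 6.8 under purified air (300 mL/min); 0.3 s puffs: air, (+)-1 100 ng, (+)-1 plus compound 1, 10, 100 μg per cartridge, then (+)-1 alone. STI: mixed-puff air-corrected depolarization loss versus first pheromone puff; LTI: final pheromone-puff loss.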

The mark [6] stands for this setting: plant synergist 1-hexanol 100 μg.
Where [7] appears, read: plant synergist methyl eugenol 1 μg.
Where [8] appears, read: odorant racemic disparlure 100 ng.

In the case of `CCCCCCCCCC[C@@H]1O[C@@H]1CCCCC(C)C` (relative stereo) [(+)-disparlure, cis-(7R,8S)-7,8-epoxy-2-methyloctadecane, reference compound], the “depolarization with pure pheromone” value in experiment [1] amounted to 20 mV. Besides, the “PBP1 (% bound)” value with L. dispar PBP 1 turned out to be 54 ± 16%. In addition, in the experiment on L. dispar PBP 2, the “PBP2 (% bound)” value is given as 71 ± 23%.

`CCN(CC)C(=O)c1cccc(C)c1` [DEET, reference compound]: the “short-term effect with plant synergist + antagonist” value is given as −339 ± 206 (5) in experiment [2] ((+)-1 100 ng + 1-hexanol 100 μg + antagonist 100 μg) and −210 ± 120 (5) in experiment [2] ((+)-1 100 ng + methyl eugenol 1 μg + antagonist 100 μg). For the same compound, the “long-term effect on (+)-1 response” value in experiment [2] (setting [6]) is given as −53 ± 48 (5); in experiment [2] (setting [7]), 27 ± 29 (5). For the same compound, the “long-term effect on the mixed (+)-1/plant odor plumes” value was −24 ± 19 (5) in experiment [2] (setting [6]) and 30 ± 27 (5) in experiment [2] (setting [7]). For the same compound, the “long-term activity (%)” value in experiment [3] (odorant 1-hexanol 100 μg) is given as 7 ± 18%; in experiment [3] (odorant (−)-disparlure 100 ng), −10 ± 29%; in experiment [3] (odorant dispar alkene 1 μg) it was 52 ± 22%; in experiment [3] (odorant methyl eugenol 1 μg), 8 ± 8%; in experiment [3] (setting [8]), −126 ± 133%. Moreover, the “short-term activity (%)” value is given as 6 ± 30% in experiment [3] (odorant 1-hexanol 100 μg); −322 ± 66% in experiment [3] (odorant (−)-disparlure 100 ng, negative = enhancement); −468 ± 231% in experiment [3] (setting [8]). Moreover, in the experiment on gypsy moths, the “trap catches in the field” value is reported as “enhanced the trap catches significantly”. In addition, the “Feeding Deterrence (%)” value in experiment [4] turned out to be 47.76%. Moreover, the “long-term inhibition (LTI) activity (in words)” value in experiment [5] was “strongest long-term inhibitors; also recorded: strong LTI activity”. For the same compound, the “Activity (%): short-term inhibition (STI)” value is recorded as −165 ± 51 (5) % in experiment [5] (mixed plume (+)-1 100 ng + compound 1 μg, mean ± S.E.); −214 ± 48 (5) % in experiment [5] (mixed plume (+)-1 100 ng + compound 10 μg, mean ± S.E.); −203±42% in experiment [5] (mixed plume (+)-1 100 ng + compound 100 μg (puff v), mean ± S.E.). Besides, the “inhibition of the recovery phase (RI, R^1 activity)” value in experiment [5] (mixed puff with highest dose (puff v)) is listed as 9±9%. In addition, the “Activity (%): long-term inhibition (LTI)” value in experiment [5] (pure (+)-1 100 ng plume following mixed plume with 100 μg compound, mean ± S.E.) was 78 ± 6 (5) %.
